Here are results for one molecule from patent US12599602B2, “Methods for treating cholestasis” (Mirum Pharmaceuticals, Inc., priority 2019, dated 2026).

The test system of this series is Overweight and obese adults. In words: Phase 1 blinded, placebo-controlled, dose-ranging clinical study (NCT02475317), fecal bile acid excretion.

Where a name gives a salt, the structure may show the parent alone.

Experimental: Participants consumed a low-fiber diet (<10 mg/day) for 2 days before randomization and during the 7-day treatment period. Measurements were taken of fBA, sBA concentration, and serum 7αC4 concentration (which is a biomarker of bile acid synthesis) prior to drug administration and at day 7.

As to `CCCC[C@]1(CC)CS(=O)(=O)c2ccc(N(C)C)cc2[C@@H](c2cccc(NC(=O)N[C@@H]3O[C@H](COS(=O)(=O)O)[C@@H](O)[C@H](OCc4ccccc4)[C@H]3O)c2)[C@H]1O` [volixibat, (2R,3R,4S,5R,6R)-4-benzyloxy-6-{3-[3-((3S,4R,5R)-3-butyl-7-dimethylamino-3-ethyl-4-hydroxy-1,1-dioxo-2,3,4,5-tetrahydro-1H-benzo[b]thiepin-5-yl)-phenyl]-ureido}-3,5-dihydroxy-tetrahydro-pyran-2-ylmethyl) hydrogen sulfate], under “7 days”, the “Mean sBA levels” value is “not elevated”. Moreover, the fBA excretion result (across doses) is reported as “increased in a dose-dependent manner”. Under “all doses”, the “treatment-emergent adverse events occurring in over 10% of participants” value was “headache and diarrhea”; the “treatment-emergent adverse events, severity” value is “mild, and none were serious”. Further, where the note is “baseline to day 7”, the “Mean serum 7αC4” value is “increased”.
